Test results: publication PMC3661498 (Ophthalmology and Eye Diseases, 2010)
Like-named read-outs stand apart in the source and are kept apart here.

What was measured:
HSV-1 [1] = experiment: In vitro antiviral testing, CPE inhibition, HSV-1; assay type: cell-based; conditions: Human alphaherpesvirus 1, read-out: EC50 HSV-1 CPE inhibition
HSV-2 = experiment: In vitro antiviral testing, CPE inhibition, HSV-2; assay type: cell-based; conditions: Human alphaherpesvirus 2, read-out: EC50 HSV-2 CPE inhibition
[2] = Transport of drug/prodrugs across freshly excised rabbit cornea; assay type: in vitro ADME; conditions: New Zealand albino, rabbit, pH 7.4
HSV-1 [3] = conditions: read-out: EC50 HSV-1; cited from earlier work
[4] = system: [^3H] alanine uptake by rPCEC; experiment: Uptake of [3H] alanine by rPCEC in presence of prodrugs, kinetics and affinity; assay type: cell-based, rabbit
[5] = system: [^3H] arginine uptake by rPCEC; experiment: Uptake of [3H] arginine by rPCEC in presence of prodrugs; assay type: cell-based, rabbit; conditions: 5 mM test substance
[6] = system: [^3H] phenylalanine uptake by rPCEC; experiment: Uptake of [3H] phenylalanine by rPCEC in presence of prodrugs; assay type: cell-based, rabbit; conditions: 5 mM test substance
isolated rabbit cornea = experiment: Transport of drug/prodrugs across freshly excised rabbit cornea; assay type: in vitro ADME; conditions: in presence of 5 mM glutamic acid

## Nc1nc2c(ncn2COCCO)c(=O)[nH]1 [ACV, acyclovir]
HSV-1 [1]
  EC50: 7.1 µM
HSV-2
  EC50: 6.6 µM
[2]
  Papp at 3 h, 1 mM: 2.33 ± 0.73 ×10⁻⁶ cm/s

## CC(C)[C@H](N)C(=O)OCCOCn1cnc2c(=O)[nH]c(N)nc21 [VACV, valacyclovir]
HSV-1 [3]
  EC50: 9.1 µM

## C[C@H](N)C(=O)O [alanine, L-alanine]
[4]; 5 mM test substance
  Effect on [^3H] alanine uptake (in words): significantly inhibited
[4]; no inhibitor, listed as [^3H] alanine
  Vmax of alanine uptake: 0.84 μmoles·min^−1·mg protein^−1
[4]; read-out: Km of alanine uptake, no inhibitor
  Km: 710 µM

## N=C(N)NCCC[C@H](N)C(=O)O [arginine, L-arginine]
[5]
  Effect on [^3H] arginine uptake (in words): significantly inhibited

## N[C@@H](Cc1ccccc1)C(=O)O [phenylalanine]
[6]
  Effect on [^3H] phenylalanine uptake (in words): significantly inhibited

## O=C(O)CCC(=O)O [succinate]
Isolated rabbit cornea
  Effect on transcorneal flux (in words): did not cause any significant change
